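All cell lines were grown in 96-well plates and treated with compound for 48 hours. GI50: concentration for 50% inhibition of growth.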 Calls of active or inactive are those of the source. Cut-off read from the data, not from the text of the source: active = GI50 up to about 1.1 µM and inactive = higher.
Columns and labels:
Test in all cases: NCI anticancer screen, dose series, 48 h
[1] = tested on: 786-0
[2] = tested on: A549
[3] = tested on: UACC-257
[4] = tested on: SK-MEL-2
[5] = tested on: OVCAR-3
[6] = tested on: HCT-116
[7] = tested on: IGROV-1
[8] = tested on: CCRF-CEM
[9] = tested on: NCI-H460
[10] = tested on: SN12C
[11] = tested on: SK-MEL-28
[12] = tested on: MOLT-4
[13] = tested on: SNB-19
[14] = tested on: SF-268
[15] = tested on: NCI-H522
[16] = tested on: CAKI-1
[17] = tested on: HT-29
[18] = tested on: UACC-62
[19] = tested on: SR
[20] = tested on: MDA-N
[21] = tested on: DU-145
[22] = tested on: SF-295
[23] = tested on: EKVX
[24] = tested on: MDA-MB-231
[25] = tested on: BT-549
[26] = tested on: MDA-MB-435
[27] = tested on: K562
[28] = tested on: TK-10
[29] = tested on: A498
[30] = tested on: U-251
[31] = tested on: NCI-H226
[32] = tested on: M14
[33] = tested on: HOP-62
[34] = tested on: HOP-92
[35] = tested on: PC-3
[36] = tested on: OVCAR-8
[37] = tested on: T47D
[38] = tested on: Hs-578T
[39] = tested on: Malme-3M
[40] = tested on: NCI/ADR-RES
[41] = tested on: SW-620
[42] = tested on: OVCAR-5
[43] = tested on: HCC 2998
[44] = tested on: SNB-75
[45] = tested on: RXF 393
[46] = tested on: LOX IMVI
[47] = tested on: KM12
[48] = tested on: UO-31
[49] = tested on: ACHN
[50] = tested on: OVCAR-4
[51] = tested on: HCT-15
[52] = tested on: SK-MEL-5
[53] = tested on: NCI-H23
[54] = tested on: MCF7
[55] = tested on: RPMI-8226
[56] = tested on: HL-60
[57] = tested on: COLO 205
[58] = tested on: SK-OV-3
[59] = tested on: SF-539

For `CN(C)CN1CSC(=S)N(CN(C)C)C1`, the GI50 [1] was 43 µM (inactive), the GI50 [2] was > 100 µM (inactive) and the GI50 [3] was > 100 µM (inactive). The GI50 [4] was 33.3 µM (inactive), the GI50 [5] was > 100 µM (inactive) and the GI50 [6] was > 100 µM (inactive). For the same molecule, the GI50 [7] was 54.3 µM (inactive), the GI50 [8] was 8.15 µM (inactive) and the GI50 [9] was 42.6 µM (inactive). The GI50 [10] was > 100 µM (inactive), the GI50 [11] was > 100 µM (inactive) and the GI50 [12] was 26.7 µM (inactive). The GI50 [13] was > 100 µM (inactive), the GI50 [14] was > 100 µM (inactive) and the GI50 [15] was 42 µM (inactive). For the same molecule, the GI50 [16] was > 100 µM (inactive), the GI50 [17] was > 100 µM (inactive) and the GI50 [18] was > 100 µM (inactive). The GI50 [19] was 16.8 µM (inactive), the GI50 [20] was > 100 µM (inactive) and the GI50 [21] was > 100 µM (inactive). For the same molecule, the GI50 [22] was > 100 µM (inactive), the GI50 [23] was > 100 µM (inactive) and the GI50 [24] was > 100 µM (inactive). The GI50 [25] was > 100 µM (inactive), the GI50 [26] was > 100 µM (inactive) and the GI50 [27] was 44.5 µM (inactive). For the same molecule, the GI50 [28] was > 100 µM (inactive), the GI50 [29] was > 100 µM (inactive) and the GI50 [30] was 32.3 µM (inactive). For the same molecule, the GI50 [31] was > 100 µM (inactive), the GI50 [32] was > 100 µM (inactive) and the GI50 [33] was > 100 µM (inactive). The GI50 [34] was > 100 µM (inactive), the GI50 [35] was 16.9 µM (inactive) and the GI50 [36] was > 100 µM (inactive). For the same molecule, the GI50 [37] was > 100 µM (inactive), the GI50 [38] was > 100 µM (inactive) and the GI50 [39] was > 100 µM (inactive). For the same molecule, the GI50 [40] was > 100 µM (inactive), the GI50 [41] was > 100 µM (inactive) and the GI50 [42] was > 100 µM (inactive). The GI50 [43] was > 100 µM (inactive), the GI50 [44] was 58.2 µM (inactive) and the GI50 [45] was > 100 µM (inactive). For the same molecule, the GI50 [46] was > 100 µM (inactive), the GI50 [47] was > 100 µM (inactive) and the GI50 [48] was > 100 µM (inactive). The GI50 [49] was > 100 µM (inactive), the GI50 [50] was > 100 µM (inactive) and the GI50 [51] was greater than 100 µM. For the same molecule, the GI50 [52] was > 100 µM (inactive) and the GI50 [53] was > 100 µM (inactive).

`CC(=O)N1c2cc(/N=N/N(C)C)ccc2NC(=O)CC1C` (stereo unspecified) was tested, and the GI50 [1] was > 100 µM (inactive), the GI50 [2] was > 100 µM (inactive) and the GI50 [3] was > 100 µM (inactive). The GI50 [4] was > 100 µM (inactive), the GI50 [5] was > 100 µM (inactive) and the GI50 [6] was > 100 µM (inactive). The GI50 [7] was > 100 µM (inactive), the GI50 [8] was > 100 µM (inactive) and the GI50 [9] was > 100 µM (inactive). For the same molecule, the GI50 [10] was > 100 µM (inactive), the GI50 [54] was > 100 µM (inactive) and the GI50 [11] was > 100 µM (inactive). The GI50 [55] was > 100 µM (inactive), the GI50 [12] was > 100 µM (inactive) and the GI50 [13] was > 100 µM (inactive). The GI50 [14] was > 100 µM (inactive), the GI50 [15] was > 100 µM (inactive) and the GI50 [16] was > 100 µM (inactive). The GI50 [17] was > 100 µM (inactive), the GI50 [18] was > 100 µM (inactive) and the GI50 [20] was > 100 µM (inactive). For the same molecule, the GI50 [21] was > 100 µM (inactive), the GI50 [22] was > 100 µM (inactive) and the GI50 [23] was > 100 µM (inactive). The GI50 [24] was > 100 µM (inactive), the GI50 [25] was > 100 µM (inactive) and the GI50 [26] was > 100 µM (inactive). The GI50 [27] was > 100 µM (inactive), the GI50 [28] was > 100 µM (inactive) and the GI50 [30] was > 100 µM (inactive). For the same molecule, the GI50 [31] was > 100 µM (inactive), the GI50 [32] was > 100 µM (inactive) and the GI50 [33] was > 100 µM (inactive). For the same molecule, the GI50 [35] was > 100 µM (inactive), the GI50 [36] was > 100 µM (inactive) and the GI50 [37] was > 100 µM (inactive). For the same molecule, the GI50 [38] was > 100 µM (inactive), the GI50 [39] was > 100 µM (inactive) and the GI50 [40] was > 100 µM (inactive). For the same molecule, the GI50 [41] was > 100 µM (inactive), the GI50 [42] was > 100 µM (inactive) and the GI50 [43] was > 100 µM (inactive). The GI50 [44] was > 100 µM (inactive), the GI50 [45] was > 100 µM (inactive) and the GI50 [47] was > 100 µM (inactive). The GI50 [56] was > 100 µM (inactive), the GI50 [48] was > 100 µM (inactive) and the GI50 [49] was > 100 µM (inactive). The GI50 [50] was > 100 µM (inactive), the GI50 [57] was > 100 µM (inactive) and the GI50 [58] was > 100 µM (inactive). For the same molecule, the GI50 [51] was greater than 100 µM, the GI50 [52] was > 100 µM (inactive) and the GI50 [53] was > 100 µM (inactive).

`CSc1[nH]nc(N)c1C(=O)Nc1ccc(C)cc1` was tested, and the GI50 [1] was 49.4 µM (inactive), the GI50 [2] was 51.6 µM (inactive) and the GI50 [3] was 62.4 µM (inactive). The GI50 [4] was 74.1 µM (inactive), the GI50 [5] was 77.3 µM (inactive) and the GI50 [6] was 75.2 µM (inactive). The GI50 [8] was 26.1 µM (inactive), the GI50 [9] was 60.1 µM (inactive) and the GI50 [10] was 96.4 µM (inactive). The GI50 [54] was 39.5 µM (inactive), the GI50 [11] was 48.8 µM (inactive) and the GI50 [55] was 51.3 µM (inactive). The GI50 [12] was 26.2 µM (inactive), the GI50 [13] was > 100 µM (inactive) and the GI50 [14] was 47.5 µM (inactive). The GI50 [15] was 26.7 µM (inactive), the GI50 [16] was 40.1 µM (inactive) and the GI50 [17] was > 100 µM (inactive). The GI50 [18] was > 100 µM (inactive), the GI50 [19] was 30.6 µM (inactive) and the GI50 [20] was 49.5 µM (inactive). For the same molecule, the GI50 [21] was 22.3 µM (inactive), the GI50 [22] was 65 µM (inactive) and the GI50 [23] was 32.2 µM (inactive). The GI50 [24] was 63.2 µM (inactive), the GI50 [25] was 90.6 µM (inactive) and the GI50 [26] was 30.9 µM (inactive). For the same molecule, the GI50 [27] was 69.5 µM (inactive), the GI50 [28] was 43 µM (inactive) and the GI50 [29] was 18.7 µM (inactive). For the same molecule, the GI50 [30] was 50.2 µM (inactive), the GI50 [31] was > 100 µM (inactive) and the GI50 [32] was 83.9 µM (inactive). For the same molecule, the GI50 [33] was > 100 µM (inactive), the GI50 [34] was 19.5 µM (inactive) and the GI50 [35] was 33.7 µM (inactive). For the same molecule, the GI50 [37] was 18.4 µM (inactive), the GI50 [38] was > 100 µM (inactive) and the GI50 [39] was 89.1 µM (inactive). For the same molecule, the GI50 [41] was 48.1 µM (inactive), the GI50 [42] was 54.7 µM (inactive) and the GI50 [43] was 76.9 µM (inactive). For the same molecule, the GI50 [45] was 97.9 µM (inactive), the GI50 [46] was 38.6 µM (inactive) and the GI50 [59] was > 100 µM (inactive). The GI50 [56] was 39.3 µM (inactive), the GI50 [48] was 36.9 µM (inactive) and the GI50 [49] was 55.2 µM (inactive). The GI50 [50] was 46.2 µM (inactive), the GI50 [57] was 55 µM (inactive) and the GI50 [58] was > 100 µM (inactive). The GI50 [51] was 51.3 µM, the GI50 [52] was 31 µM (inactive) and the GI50 [53] was 61.1 µM (inactive).
